Experimental data as given in paper PMC8999917, “Structure–Activity Relationship of Synthetic Ginkgolic Acid Analogs for Treating Type 2 Diabetes by PTPN9 Inhibition” (International Journal of Molecular Sciences, 2022).

Target: T1, PTPN9 (Homo sapiens, UniProt P43378)
T1 construct: made in house; host or cells: Escherichia coli Rosetta (DE3)
T1 sequence (P43378 277-581): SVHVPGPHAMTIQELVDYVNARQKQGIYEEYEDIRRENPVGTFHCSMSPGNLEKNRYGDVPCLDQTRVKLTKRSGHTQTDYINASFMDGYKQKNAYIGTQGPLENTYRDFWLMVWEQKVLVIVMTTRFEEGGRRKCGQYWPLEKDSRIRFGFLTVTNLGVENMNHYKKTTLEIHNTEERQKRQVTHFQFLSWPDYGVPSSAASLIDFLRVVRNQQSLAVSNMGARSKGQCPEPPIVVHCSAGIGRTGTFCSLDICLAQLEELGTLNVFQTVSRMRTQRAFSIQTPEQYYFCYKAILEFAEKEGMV
Experiment: PTPN9 enzyme inhibition with DiFMUP substrate
Assay type: biochemical
Conditions: DiFMUP 220 µM, PTPN9 0.15 nM; NA: no activity
Protocol: The purification and kinetic analyses of PTPN9 and DUSP9 (Ser277–581) were performed following methods described in the literature, with slight modifications. PAGE analysis data and enzyme kinetic constants are presented in Figure S1 and Table S1, respectively. Enzyme activity in the presence or absence of the compounds was measured using DiFMUP, a representative PTP fluorogenic substrate. First, the inhibitory effects of compounds 1–3 were evaluated using 50 µM PTPN9 and 20 µM DUSP9. There was an increase in the inhibitory activity of compound 1 for both enzymes as the number of CH2 units increased from 9 to 14 (Figure 2A,B).
Next, the IC50 values of the compounds, which induce a 50% inhibition of DiFMUP hydrolytic enzyme activity, were determined (Table 1). The IC50 values were determined from the dose–response enzyme inhibition curves of each compound. The dose–response curves for compounds 1e and 1f against PTPN9 and DUSP9, respectively, are presented in Figure 2C,D. Dose–response curves were also obtained for the other compounds (Figures S2 and S3).
The methods employed for PTP overexpression and purification have been described in a previous study. In brief, human PTPN9 and DUSP9 were cloned into a pET28a vector (Merk Millipore, Darmstadt, Germany) containing a hexahistidine (His6) tag or a maltose-binding protein (MBP) tag in its N-terminus (see Supplementary Materials). Recombinant genes were separately transformed into Escherichia coli Rosetta (DE3) (Merk Millipore, Darmstadt, Germany), and the overexpression of each gene was induced via the addition of 0.1 mM IPTG (Ducherfa Biochemie, Haarlem, RV, USA). After 16 h of incubation at 18 °C, cell pellets were obtained via centrifugation (3570× g at 4 °C for 15 min), resuspended in lysis buffer (50 mM Tris, pH: 7.5, 500 mM NaCl, 5% glycerol, 0.025% 2-mercaptoethanol, and 1 mM phenyl-methylsulfonyl fluoride (PMSF)), and lysed by ultrasonication. Subsequently, cell lysates were centrifuged at 29,820× g for 30 min at 4 °C; then, the supernatant was collected and incubated with a cobalt affinity resin (TALON® Metal Affinity Resin, Takara Korea, Seoul, Korea). After 1 h of incubation at 4 °C, the desired proteins were eluted by adding the lysis buffer supplemented with 100 mM imidazole. Samples were stored at –80 °C until use.
The enzymatic activities of purified PTPN9 and DUSP9 were measured using 6,8-difluoro-4-methylumbelliferyl phosphate (DiFMUP), the most widely used fluorogenic PTP substrate in the literature. To determine KM values, PTPN9 (0.15 nM) and DUSP9 (200 nM) were added to a reaction buffer (20 mM Bis-tris, pH: 7.0, 150 mM NaCl, 2.5 mM dithiothreitol (DTT), and 0.01% Triton X-100) containing DiFMUP (800, 400, 200, 100, 50, 25, 12.5, or 6.25 μM) in a 96-well black plate. The final reaction volume was 100 µL. The fluorescence intensity was continuously monitored for 10 min (Ex/Em = 355/460 nm) on a Victor™ X4 multilabel plate reader (Perkin Elmer, Norwalk, CT, USA). KM values were obtained using Lineweaver–Burk plots analysis.
To evaluate the enzyme inhibitory effects of GA and its analogs, 10 µl of the enzyme stock solution (1.5 nM PTPN9 and 2 µM DUSP9) in the reaction buffer was added into the mixture of DiFMUP (to a final concentration of 220 µM and 90 µM for PTPN9 and DUSP9, respectively) and each compound (to a final concentration of 50 µM and 20 µM for PTPN9 and DUSP9, respectively) was added to the reaction buffer. Enzyme activity was measured as described above. Half-inhibitory concentration (IC50) values were determined under similar conditions, except for the concentrations of the inhibitors (200, 100, 50, 25, 12.5, 6.25, or 3.125 µM for PTPN9 and 25, 12.5, 6.25, 3.125, 1.563, 0.782, or 0.391 µM for DUSP9). The dose-dependent curve was fitted to the four-parameter logistic regression equation, (y = a + (b – a)/(1 + (x/c)^d), to obtain IC50 values using the Kaleida Graph software Ver. 4.1.3. (Synergy Software Inc, PA, USA).

| IC50 [µM] | SMILES |
| --- | --- |
| 18.31 ± 0.17 | CCCCCCCCCCCCCOc1cccc(O)c1C(=O)O [Compound 1e] |
| 10.2 ± 0.52 | CCCCCCCCCCCCCCCOc1cccc(O)c1C(=O)O [Compound 1f] |
